# Laboratory results: patent US7495028B2, “R-bambuterol, its preparation and therapeutic uses” (priority 2002, dated 2009)
# Tests used:
# [1] = tested on: conscious guinea pigs exposed to aerosol histamine; assay: Protection against histamine-evoked asthma in conscious guinea pigs; type: in vivo, guinea pig; conditions: for Collapsed n: 8 animals; for % collapse / Latency time of collapse: dose-response, four hours before exposure
# Method: Test methods: Guinea pigs (Dunki-Hartley strain, 190±30 g) were fasted overnight but given water ad libidum. The animals were restrained individually in a glass chamber and exposed to aerosol histamine generated by a nebulizer from a 0.2% aqueous solution of histamine under constant pressure at dose of 0.5 ml/min for a period of 15 sec. The animal was removed from the chamber, and its behavior was monitored. A sign of collapse and the latency time from exposure to collapse were recorded. Only the animals with latency time less than 120 sec, as an indication of sensitive to histamine, were chosen for later experiments. The animals chosen were allowed to recover completly by resting for 24 hours before experiments. Test compounds and racemic bambuterol hydrochloride were dissolved in saline.
# Time course of the effect of test compounds: R-Bambuterol hydrochloride or racemic bambuterol hydrochloride at 2, 4 and 8 mg/kg, and vehicle alone, were administered to the guinea pigs orally via a stomach tube. Exposure of treated animals to aerosol histamine (as above) was done at 1, 4 and 24 hours after treatment. For each experimental group, there were a total of 8 animals with equal number of both sexes, and no repeated exposure was made for individual experimental animals.
# Study of dose-response of test compounds: Four hours before the exposure to aerosol histamine, animals were randomized into groups (n=8, equal male and female), and given R-bambuterol hydrochloride or racemic bambuterol in doses of 0.25, 0.5, 1.0, 2.0, 4.0 and 8.0 mg/kg, and vehicle control, orally via a stomach tube. The numbers of collapsed animal as a result of asthmatic reaction to aerosol histamine were counted, and the latency times were recorded. Both of these parameters were used as quantitative measurements of the protective effects of the treatments on bronchospasm evoked by aerosol histamine.
# [2] = tested on: sensitized conscious guinea pigs exposed to aerosol ovalbumin; assay: Protection against allergic bronchospasm in ovalbumin-sensitized conscious guinea pigs; type: in vivo, guinea pig
# Method: Test method: Guinea pigs (Dunkin-Hartley strain, 200±10 g, equal sexes) were used in this study. Ovalbumin (5%) solution was injected into guinea pigs subcutaneously and intraperitoneally to sensitize the animals. Male and female sensitized animals were kept separately for 14 days, and food and water was available ad libitum. On day 14 after sensitization, animals were randomized into groups of 8 each. The animals were treated orally with saline (control) or various concentrations of R-bambuterol or racemic bambuterol in saline. Four hours after the treatment, each animal was restrained in a glass chamber. After stabilization the animal was exposed to an aerosol of ovalbumin generated by a nebulizer from a 5% solution of ovalbumine at a rate of 0.5 ml/min for a period of 15 seconds. The animal was removed from the chamber, and the behavior of the animal was monitored. The number of the sensitized animals which collapsed were counted, and the latency time, i.e. the time from the exposure to aerosol ovalbumin to the collapse of the animal, was recorded.
# [3] = Serum concentration of active parent form (terbutaline) after oral dosing; type: in vivo, guinea pig; conditions: guinea pigs, 8 mg/kg oral, four hours later
# Method: Based on the pharmacokinetic studies of racemic bambuterol hydrochloride, about 50% of absorbed bambuterol is hydrolyzed to terbutaline, the active-parent form, in plasma. There is little cholinesterase in the lung strip preparation, so neither the test compound nor racemic bambuterol has significant effects. In order to test the compound of invention in vitro on isolated guinea-pig lung tissue, R-bambuterol and racemic bambuterol were administrated orally to guinea pigs at a dose of 8 mg/kg. Four hours later, blood was collected from the animals, and the serum containing the active parent form of the test compounds were prepared. The concentration of the active parent form, i.e. terbutaline, in serum measured using BPLC, was 64-70 ng/ml in the animal treated with R-bambuterol and 62-69 ng/ml in the animal treated with racemic bambuterol. The serum containing the active form of test compound was then added into the organ in a certain volume, so that the final concentration of the active forms of test compounds was 0.25 ng/ml in the organ bath. Concentration-response relationships were obtained using a cumulative dose schedule by adding the same volume of the serum into the organ bath. The test using the serum containing the active form of racemic bambuterol was done in parallel with the test compound in the same manner as described above.
# [4] = in plasma; cited from earlier work
smiles,measurement,setting,value
"CN(C)C(=O)Oc1cc(OC(=O)N(C)C)cc(C(O)CNC(C)(C)C)c1 (stereo not drawn) [RS-bambuterol, bambuterol]",Collapsed %,"[1]; 2 mg/kg oral, 1st Hour",75.0%
same,Latency,"[1]; 2 mg/kg oral, 1st Hour",168 ± 61 s
same,Collapsed n,"[1]; 2 mg/kg oral, 1st Hour",6.0
same,Collapsed %,"[1]; 2 mg/kg oral, 4th Hour",50.0%
same,Latency,"[1]; 2 mg/kg oral, 4th Hour",227 ± 56 s
same,Collapsed n,"[1]; 2 mg/kg oral, 4th Hour",4.0
same,Collapsed %,"[1]; 2 mg/kg oral, 24th Hour",50.0%
same,Latency,"[1]; 2 mg/kg oral, 24th Hour",208 ± 65 s
same,Collapsed n,"[1]; 2 mg/kg oral, 24th Hour",5.0
same,Collapsed %,"[1]; 4 mg/kg oral, 1st Hour",62.5%
same,Latency,"[1]; 4 mg/kg oral, 1st Hour",199 ± 63 s
same,Collapsed n,"[1]; 4 mg/kg oral, 1st Hour",5.0
same,Collapsed %,"[1]; 4 mg/kg oral, 4th Hour",25.0%
same,Latency,"[1]; 4 mg/kg oral, 4th Hour",299 ± 51 s
same,Collapsed n,"[1]; 4 mg/kg oral, 4th Hour",2.0
same,Collapsed %,"[1]; 4 mg/kg oral, 24th Hour",37.5%
same,Latency,"[1]; 4 mg/kg oral, 24th Hour",287 ± 57 s
same,Collapsed n,"[1]; 4 mg/kg oral, 24th Hour",3.0
same,Collapsed %,"[1]; 8 mg/kg oral, 1st Hour",37.5%
same,Latency,"[1]; 8 mg/kg oral, 1st Hour",260 ± 66 s
same,Collapsed n,"[1]; 8 mg/kg oral, 1st Hour",3.0
same,Collapsed %,"[1]; 8 mg/kg oral, 4th Hour",0.0%
same,Latency,"[1]; 8 mg/kg oral, 4th Hour",>360 s
same,Collapsed n,"[1]; 8 mg/kg oral, 4th Hour",0.0
same,Collapsed %,"[1]; 8 mg/kg oral, 24th Hour",25.0%
same,Latency,"[1]; 8 mg/kg oral, 24th Hour",303 ± 54 s
same,Collapsed n,"[1]; 8 mg/kg oral, 24th Hour",2.0
same,% collapse,[1]; 0.25 mg/kg oral,100%
same,Latency time of collapse,[1]; 0.25 mg/kg oral,61 s
same,% collapse,[1]; 0.5 mg/kg oral,87.5%
same,Latency time of collapse,[1]; 0.5 mg/kg oral,114 s
same,% collapse,[1]; 1 mg/kg oral,75%
same,Latency time of collapse,[1]; 1 mg/kg oral,151 s
same,% collapse,[1]; 2 mg/kg oral,50%
same,Latency time of collapse,[1]; 2 mg/kg oral,227 s
same,% collapse,[1]; 4 mg/kg oral,25%
same,Latency time of collapse,[1]; 4 mg/kg oral,299 s
same,% collapse,[1]; 8 mg/kg oral,0%
same,Latency time of collapse,[1]; 8 mg/kg oral,>360 s
same,Duration of protective effects,[1]; oral 2 to 8 mg/kg,24 h
same,Onset of protective effects after administration,[1]; oral 2 to 8 mg/kg,one
same,Time of maximum protective effects after administration,[1]; oral 2 to 8 mg/kg,4 h
same,Dose at which full protective effect was seen,"[1]; oral, collapse after aerosol histamine",8 mg/kg
same,ED50 (protection against collapse),"[1]; oral, four hours before aerosol histamine",1.68 mg/kg
same,Dose at which maximum effects on latency were seen,"[1]; oral, latency time to collapse",8 mg/kg
same,% collapsed,[2]; 1 mg/kg oral,75%
same,Latency time,[2]; 1 mg/kg oral,156 ± 38 s
same,Number collapsed,"[2]; 1 mg/kg oral (n = 8), four hours before aerosol ovalbumin",6
same,% collapsed,[2]; 4 mg/kg oral,38%
same,Latency time,[2]; 4 mg/kg oral,174 ± 21 s
same,Number collapsed,[2]; 4 mg/kg oral (n = 8),3
same,% collapsed,[2]; 8 mg/kg oral,25%
same,Number collapsed,[2]; 8 mg/kg oral (n = 8),2
same,Latency time,"[2]; 8 mg/kg oral, listed as Racemic bambuterol",316 ± 36 s
same,Latency time,"[2]; 8 mg/kg oral, listed as racemic bambuterol",316 ± 36 s
same,"Concentration of the active parent form, terbutaline, in serum",[3],62 to 69 ng/mL
same,Fraction of absorbed bambuterol hydrolyzed to terbutaline,[4],about 50%
